From US20260325540A1 (priority 2023, published 2026) come the findings set out here.

Test [1] concerns the target MERS-CoV 3CLpro (Middle East respiratory syndrome-related coronavirus, UniProt K9N638). In words: biochemical. Particulars: MERS IC50, 75 nM MERS-CoV 3CLpro, 6 μM peptide 1 substrate, 25° C., 1.5 hrs, pH 7.5.
Test [2] has as its target SARS-CoV-2 3CLpro (Severe acute respiratory syndrome coronavirus 2, UniProt P0DTD1). Nature of the test: FRET based protease assay, SARS-CoV-2 3CL. The test is classed as biochemical, SARS-CoV-2 (strain BetaCoV/Wuhan/WIV04/2019).

pIC50: −log10 of the molar value.

Sequence of MERS-CoV 3CLpro (K9N638 3248-3553 limits assumed): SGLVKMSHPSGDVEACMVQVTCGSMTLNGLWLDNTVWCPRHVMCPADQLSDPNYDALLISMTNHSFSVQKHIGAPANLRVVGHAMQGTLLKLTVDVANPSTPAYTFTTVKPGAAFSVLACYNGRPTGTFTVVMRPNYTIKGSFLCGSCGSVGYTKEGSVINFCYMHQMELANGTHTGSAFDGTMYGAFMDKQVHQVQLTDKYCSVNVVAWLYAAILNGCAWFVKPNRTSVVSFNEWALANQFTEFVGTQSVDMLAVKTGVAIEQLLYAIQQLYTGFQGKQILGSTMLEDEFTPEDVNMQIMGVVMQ

In general, pIC50 refers to the negative decadic logarithm of the IC50, by convention in mol/L. Higher therefore signals a small IC50. With `CC1(C)[C@@H]2[C@H]3C(=O)N[C@H](C#N)C[C@@H]4C(=O)NC[C@@H]4CCCC[C@H](NS(=O)(=O)c4ccc(F)cc4F)C(=O)N3C[C@@H]21` [Example 157], the pIC50 in test [1] and in test [2] was above 7.00 each time.

On to `CC1(C)[C@@H]2[C@H]3C(=O)N[C@H](C#N)C[C@@H]4C(=O)NC[C@@H]4CCCC[C@H](NS(=O)(=O)C(F)(F)F)C(=O)N3C[C@@H]21` [Example 158], for which the pIC50 in test [1] and in test [2] was above 7.00 each time.

As to `CC1(C)[C@@H]2[C@H]3C(=O)N[C@H](C#N)C[C@@H]4C(=O)NC[C@@H]4CCCC[C@H](NS(=O)(=O)C4(C)CC4)C(=O)N3C[C@@H]21` [Example 159], the pIC50 in test [1] and in test [2] was above 7.00 in each case.

Regarding `CC1(C)[C@@H]2[C@H]3C(=O)N[C@H](C#N)C[C@@H]4C(=O)NC[C@@H]4CCCC[C@H](NS(=O)(=O)C4CCC4)C(=O)N3C[C@@H]21` [Example 160], the pIC50 in test [1] and in test [2] was above 7.00 each time.

On to `CC1(C)[C@@H]2[C@H]3C(=O)N[C@H](C#N)C[C@@H]4C(=O)NC[C@@H]4CCCC[C@H](N)C(=O)N3C[C@@H]21` [Example 161], for which the pIC50 was 4.70 to 6.00 in test [1] and 6.00 to 7.00 in test [2].

As to `CC1(C)[C@@H]2[C@H]3C(=O)N[C@H](C#N)C[C@@H]4C(=O)NC[C@@H]4CCCC[C@H](Nc4nccc(C(F)(F)F)n4)C(=O)N3C[C@@H]21` [Example 162], the pIC50 in test [1] was 6.00 to 7.00; in test [2], above 7.00.

With `CC1(C)[C@@H]2[C@H]3C(=O)N[C@H](C#N)C[C@@H]4C(=O)NC[C@@H]4CCCC[C@H](Nc4cc(C(F)(F)F)ncn4)C(=O)N3C[C@@H]21` [Example 163], the results for the pIC50 in test [1] and in test [2] were 6.00 to 7.00 and above 7.00, respectively.

`CC1(C)[C@@H]2[C@H]3C(=O)N[C@H](C#N)C[C@@H]4C(=O)NC[C@@H]4CCCC[C@H](Nc4ccnc(C(F)(F)F)n4)C(=O)N3C[C@@H]21` [Example 164]: the values for the pIC50 in test [1] and in test [2] were 6.00 to 7.00 and above 7.00, respectively.

With `N#C[C@@H]1C[C@@H]2C(=O)NC[C@@H]2CCCC[C@H](Nc2nccc(C(F)(F)F)n2)C(=O)N2C[C@@H]3CCC[C@@H]3[C@H]2C(=O)N1` [Example 165], the pIC50 in test [1] is 6.00 to 7.00; in test [2], above 7.00.

For `CC(C)(C)NC(=O)[C@@H]1CCCC[C@H]2CNC(=O)[C@H]2C[C@@H](C#N)NC(=O)[C@@H]2[C@@H]3[C@H](CN2C1=O)C3(C)C` [Example 166], the values for the pIC50 in test [1] and in test [2] were below 4.70 and 4.70 to 6.00, respectively.

Regarding `CC(C)(C)NC(=O)[C@H]1CCCC[C@H]2CNC(=O)[C@H]2C[C@@H](C#N)NC(=O)[C@@H]2[C@@H]3[C@H](CN2C1=O)C3(C)C` [Example 167], the pIC50 is 4.70 to 6.00 in test [1] and 6.00 to 7.00 in test [2].

For `CC(C)(C)OC(=O)NN1CCCC[C@H]2CNC(=O)[C@H]2C[C@@H](C#N)NC(=O)[C@@H]2[C@@H]3[C@H](CN2C1=O)C3(C)C` [Example 168], the negative-log IC50 (pIC50) in test [1] and in test [2] was 4.70 to 6.00 each time.
